# Assay results taken from US20230150951A1, “2,5- OR 2,6-DISUBSTITUTED HYDROQUINONE DERIVATIVES WITH AT LEAST ONE CARBOXY, SULFO OR AMIDO GROUP USEFUL AS MEDICAMENTS” (OM PHARMA SA, priority 2020, published 2023).
# Entries after “also recorded” stand apart in the source; their conditions may differ.
# What was measured:
# [1] = system: DBA/2 mouse strain with STZ induction of diabetes; assay: STZ-induced diabetic retinopathy and nephropathy model in DBA/2 mice; assay type: in vivo; conditions: one and two weeks, FIG. 9
# Method: Therapeutic efficacy of the compounds according to the present invention was assessed using diabetic mouse model using the DBA/2 mouse strain with STZ induction of diabetes and follow diabetic retinopathy including kidney damage. Five weeks after induction of diabetes via low dose STZ injection for 5 consecutive days, the urinary albumin:Cr ratio is […] compared to 36.9 for age-matched controls.
# For treatment of diabetic nephropathy, DBA/2 mice were induced with STZ (low dose for 5 consecutive days).
# Treatment was performed for four weeks (IV dosing) with weekly assessment of blood glucose and urine albumin/creatinine levels. At the end of the treatment period animals, the following samples were taken: • Blood for measurement of glucose and Blood Urea Nitrogen (BUN) • Blood for measurement of serum creatinine • Urine for final albumin/creatinine ratio. • Kidney was resected and FFPE: Picro-Sirius Red, Masson's Trichrome and H&E staining was carried out to identify areas of fibrosis, along with evidence of Mesangial sclerosis, Arteriolar hyalinosis, Glomerular Basal Membrane (GBM) thickening
# To assess compound effect on diabetic retinopathy, animals had weekly images taken via Fundus Camera. Immediately prior to sacrifice, animals were injected with FITC-dextran via tail vein. During sampling, the eyes were sampled and fixed in formalin. Retinal Flatmounts were prepared and examined fluorescently looking at compound effects on vascularity and leakiness of vessels (indicted by high background staining).
# [2] = system: acute pancreatitis murine model; assay: Caerulein-induced acute pancreatitis murine model; assay type: in vivo, Balb/c mice; design: Serum IL33 level / Serum TGF-B level: unit not given here; conditions: for Schmidt Score (H&E): induced + vehicle = 10, non-induced = 0; for Pancreas IL33 level / Pancreas MPO activity / Pancreas TGF-B level: terminal pancreatic tissue; for Serum IL33 level / Serum TGF-B level / Serum amylase level / Serum lipase level: terminal serum; for TGF-B levels in pancreas / pancreatic tissue levels of IL33 / Global Schmidt score: first experiment; for pancreatic tissue levels of IL33: compared to the induced group; for Global Schmidt score: vs caerulein control animals; for Lipase activity in serum: pirfenidone 100 mg/kg, compounds 15 mg/k, vs vehicle treated animals; for MPO activity in pancreatic tissue: vs induced vehicle treated controls
# Method: Therapeutic efficacy of the compounds according to the present invention was assessed on an acute pancreatitis murine model. Tissue samples were obtained to allow post in-life analysis of pancreatitis parameters. Plasma samples were also obtained to assess animal exposure levels after administration of the compounds.
# Animals: A total of 70 female Balb/c mice aged 8-10 weeks weighing approximately 20-25 g were used for the study (Charles River). After 7 days acclimatization, they were allocated into the different groups. […] Cages, bedding, and water were sanitized before use. Animals were provided with Corn-o-cobs enrichment bedding to provide environment enrichment and nesting material. […] The animal holding room were maintained as follows—room temperature at 20-24° C., humidity at 30-70% and a 12 h light/dark cycle used. Although animals used in this study were immuno-competent, preparation of dosing solutions and dosing/weighing of animals were carried out in a sterile biosafety cabinet.
# Final formulation was in 5% DMSO, 10% Solutol, 10% PEG400, 75% 0.9% Saline and pH adjusted to 7 with 0.5M NaOH solution.
# Final formulation is in 5% DMSO, 10% Solutol, 10% PEG400, 75% 0.9% Saline and pH adjusted to 7 with 0.5M NaOH solution. For per os (PO) dosing IVc-059a is formulated in water. Drug solutions were formulated on the day of dosing.
# The purposes of this study were to assess efficacy compounds in an acute pancreatitis model (14 days), generate tissue samples to allow post in-life analysis of pancreatitis parameters and generate four plasma samples to assess animal exposure levels after first and last injection obtained from blood samples taken 1 h and 24 h after first and last injection.
# Study Design: On the first study day animals were randomly be assigned to treatment groups, ensuring an equal spread of bodyweight. Mice (except negative control group) were treated with test compounds were given 5 minutes prior to caerulein dosing, followed by injection with caerulein at […] via intraperitoneal route (IP) daily during the study.
# Treatment of test compounds were given 5 minutes prior to caerulein dosing.
# Sampling and post in-life analyses: at times indicated above a whole blood sample (60 μl) were taken from the lateral tail vein into tubes coated with K2-EDTA. Plasma samples were prepared and stored frozen at −20° C. Plasma samples were sent to client bioanalysis provider Eurofins (FR) for quantification of compound.
# Terminal Sampling: Prior to termination animals were weighed. Terminal study animals were culled via CO2 inhalation. A terminal blood sample was taken via cardiac puncture and plasma prepared. Lipase and Amylase activities were measured via ELISA using commercially available ELISA kits. Remaining plasma was stored for future cytokine analyses. Pancreas tissue was resected and weighed, and a section ([…]) snap frozen and analysed for quantification of compound in pancreas sample. A section ([…]) was processed for measurement of MPO activity, IL-33 and TGF-B levels via ELISA. The remainder was fixed in formalin and embedded in paraffin wax. H&E staining was carried out and section assessed using Schmidts standard scoring system, examining: edema, inflammatory infiltration, parenchymal necrosis, haemorrhage. Massons' Trichrome staining was carried out and area covered by fibrotic tissue quantified digitally using QuPath software. Terminal serum samples was used to assess blood chemistry using an IdeXX CHEM15 and LYTE4 clip (4 animals per treatment group).
# Histopathology assessment of pancreatic injury based on 4 criteria: Oedema, Inflammatory infiltration, Parenchymal necrosis, Haemorrhage and scored as described below.
# Schmidt score is the evaluation of the efficacy of the compounds based on the four histopathology criteria as described in the table below.
# [3] = system: STZ-induced diabetes model; assay: STZ-induced diabetic nephropathy, kidney disease and retinopathy model (28 days treatment); conditions: for Serum TNF-α / Retina vasculature coverage / Kidney collagen levels (Masson's Trichrome): 28 days; for Serum TNF-α: p<0.05; for Retina vasculature coverage: retinal flat mounts, FITC-dextran; for Kidney collagen levels (Masson's Trichrome) / Blood glucose levels on day 28 / Blood urea nitrogen levels: vs induced vehicle controls; for Blood glucose levels on day 28: IV; for Blood urea nitrogen levels / Mean day 28 blood glucose Concentration (mmol/L) (SD): day 28; for Blood BUN / Disease Score (kidney, H&E) / Eye area (retinal flatmount area covered by vasculature) / Trichrome staining (Kidney fibrosis) / Blood CRP / Blood IL-6 / Blood TGF-beta / Blood TNF-alpha / Urine albumine creatinine ratio (ALB:CRE): day 28 of treatment (week 9); for Blood BUN / Disease Score (kidney, H&E) / Eye area (retinal flatmount area covered by vasculature) / Trichrome staining (Kidney fibrosis) / Blood CRP / Blood IL-6 / Blood TGF-beta / Blood TNF-alpha / Mean day 0 blood glucose Concentration (mmol/L) (SD) / Mean day 28 blood glucose Concentration (mmol/L) (SD) / Urine albumine creatinine ratio (ALB:CRE): 15 mg/kg IV, Captopril 50 mg/kg PO; for Blood CRP / Blood IL-6 / Blood TGF-beta / Blood TNF-alpha: serum; for Urine ALB:CREA: treatment day 28; for Urine albumine creatinine ratio (ALB:CRE): urine pooled per group
# [4] = 1st experiment, caerulein induced, 15 mg/kg IV, Ib-010a and IVc-059a 150 mg/kg PO, Pirfenidone 40 mg/kg IV
# [5] = 1st experiment, 15 mg/kg IV, Ib-010a and IVc-059a 150 mg/kg PO, Pirfenidone 40 mg/kg IV
# [6] = second experiment, H&E sections
# [7] = second experiment, IV, 15 mg/kg, Pirfenidone 100 mg/kg
structure (smiles),measurement,setting,value
"O=C(O)c1cc(O)c(CN(Cc2cc(O)c(C(=O)O)cc2O)Cc2cc(O)c(C(=O)O)cc2O)cc1O [IIIc-061a, Tris(4-carboxy-2,5-dihydroxyphenylmethyl)amine]",Blood glucose level,[1],significantly reduced
same,Acinar cell necrosis (group mean score),[2]; [4],0.5
same,Haemorrhage (group mean score),[2]; [4],1.0
same,Interstitial oedema (group mean score),[2]; [4],1.0
same,Mean terminal BW (% of initial),[2]; [4],91.4 % of initial
same,Mean terminal pancreas weight,[2]; [4],0.086 g
same,Pancreas histopathology observations (H&E),[2]; [4],Mild oedema observed; also recorded: Mild haemorrhage observed; also recorded: Mild acinar cell necrosis observed; also recorded: Mild leukocyte infiltration observed; also recorded: Normal islet morphology observed
same,Schmidt Score (H&E),[2]; [4],3.5
same,Pancreas IL33 level,[2]; [5],177 ± 80
same,Pancreas MPO activity,[2]; [5],2.13
same,Pancreas TGF-B level,[2]; [5],295 ± 146
same,Serum IL33 level,[2]; [5],33.72
same,Serum TGF-B level,[2]; [5],4.65
same,Serum amylase level,[2]; [5],38.38
same,Serum lipase level,[2]; [5],9.79
same,TGF-B levels in pancreas,[2]; IV,decreased significantly
same,pancreatic tissue levels of IL33,[2]; IV,significant decrease
same,Global Schmidt score,[2],especially improved
same,Schmidt Score,[2]; [6],lower scores than the positive control pirfenidone
same,Lipase activity in serum,[2]; second experiment,significantly lower than that in vehicle treated animals
same,MPO activity in pancreatic tissue,[2]; second experiment,significantly lower than induced vehicle treated controls
same,Serum TNF-α,[3],significantly lower than vehicle induced controls
same,Retina vasculature coverage,[3],significantly decreased
same,Kidney collagen levels (Masson's Trichrome),[3],significantly decreased
same,Blood glucose levels on day 28,[3],"reduction in blood glucose levels, however this did not reach statistical significance"
same,Blood urea nitrogen levels,[3],significantly lower than induced vehicle controls
same,Blood BUN,[3],22.5 ± 4.1
same,"Disease Score (kidney, H&E)",[3],8 ± 1
same,Eye area (retinal flatmount area covered by vasculature),[3],9.1 ± 1.1
same,Trichrome staining (Kidney fibrosis),[3],1.54 ± 0.55
same,Blood CRP,[3],5963 ± 849
same,Blood IL-6,[3],117.59 ± 29.21
same,Blood TGF-beta,[3],17.35 ± 2.09
same,Blood TNF-alpha,[3],324.6 ± 43.6
same,Urine ALB:CREA,[3],reduced
"O=C(O)c1cc(O)cc(CS(=O)(=O)Cc2cc(O)cc(C(=O)O)c2O)c1O [IVc-059a, 3-((2,5-Dihydroxy-3-carboxyphenyl)methylsulfonylmethyl)-2,5-dihydroxybenzoic acid]",Blood glucose level,[1],significantly reduced
same,Acinar cell necrosis (group mean score),[2]; [4],1.0
same,Haemorrhage (group mean score),[2]; [4],1.0
same,Interstitial oedema (group mean score),[2]; [4],1.0
same,Leukocyte infiltration (group mean score),[2]; [4],1.0
same,Mean terminal BW (% of initial),[2]; [4],93.3 % of initial
same,Mean terminal pancreas weight,[2]; [4],0.09 g
same,Pancreas histopathology observations (H&E),[2]; [4],Mild oedema less observed; also recorded: Mild haemorrhage less observed; also recorded: Mild acinar cell necrosis observed; also recorded: Mild leukocyte infiltration observed; also recorded: Some pancreatic islet hyperplasia observed; also recorded: Disruption to the basophilic region
same,Schmidt Score (H&E),[2]; [4],4.0
same,Pancreas IL33 level,[2]; [5],86 ± 23
same,Pancreas MPO activity,[2]; [5],2.88
same,Pancreas TGF-B level,[2]; [5],231 ± 199
same,Serum IL33 level,[2]; [5],46.54
same,Serum TGF-B level,[2]; [5],5.69
same,Serum amylase level,[2]; [5],38.56
same,Serum lipase level,[2]; [5],10.21
same,TGF-B levels in pancreas,[2]; IV,decreased significantly
same,pancreatic tissue levels of IL33,[2]; IV,significant decrease
same,Global Schmidt score,[2],especially improved
same,Schmidt Score,[2]; [6],lower scores than the positive control pirfenidone
same,Amylase,[2]; [7],41.149 mU/mL
same,IL-33,[2]; [7],215 ± 84 ng/mL
same,Lipase,[2]; [7],4.324 mU/mL
same,MPO,[2]; [7],1.813 ± 0.405 U/mg
same,Schmidt Score,[2]; [7],10.63 ± 2.33
same,TGF-B,[2]; [7],403 ± 84 ng/mL
same,Trichome staining (Fibrosis % area),[2]; [7],1.048 ± 0.449 % area
same,Lipase activity in serum,[2]; second experiment,significantly lower than that in vehicle treated animals
same,MPO activity in pancreatic tissue,[2]; second experiment,significantly lower than induced vehicle treated controls
same,Retina vasculature coverage,[3],significantly decreased
same,Kidney collagen levels (Masson's Trichrome),[3],significantly decreased
same,Blood glucose levels on day 28,[3],significant reduction
same,Mean day 0 blood glucose Concentration (mmol/L) (SD),[3],24.3 (6.4) mmol/L
same,Mean day 28 blood glucose Concentration (mmol/L) (SD),[3],23.7 (6.6) mmol/L
same,Blood urea nitrogen levels,[3],significantly lower than induced vehicle controls
same,Blood BUN,[3],22.5 ± 2.8
same,"Disease Score (kidney, H&E)",[3],7 ± 1
same,Eye area (retinal flatmount area covered by vasculature),[3],8.7 ± 1.2
same,Trichrome staining (Kidney fibrosis),[3],1.48 ± 0.73
same,Blood CRP,[3],5691 ± 1395
same,Blood IL-6,[3],120.88 ± 23.05
same,Blood TGF-beta,[3],13.47 ± 3.33
same,Blood TNF-alpha,[3],350.2 ± 41.4
same,Urine albumine creatinine ratio (ALB:CRE),[3],18.85
same,Urine ALB:CREA,[3],reduced
"O=C(O)c1cc(O)c(C(=O)Nc2ccccc2-c2nnn[nH]2)cc1O [Ia-001a-Tz, 4-(2-(1H-tetrazol-5-yl)phenyl-aminocarbonyl)-2,5-dihydroxybenzoic acid]",Mean terminal BW (% of initial),[2]; [4],89.1 % of initial
same,Mean terminal pancreas weight,[2]; [4],0.084 g
same,Schmidt Score (H&E),[2]; [4],5.9
same,Pancreas IL33 level,[2]; [5],154 ± 49
same,Pancreas MPO activity,[2]; [5],2.68
same,Pancreas TGF-B level,[2]; [5],507 ± 289
same,Serum IL33 level,[2]; [5],37.02
same,Serum TGF-B level,[2]; [5],8.69
same,Serum amylase level,[2]; [5],35.35
same,Serum lipase level,[2]; [5],8.57
same,pancreatic tissue levels of IL33,[2]; IV,significant decrease
same,Serum CRP,"[3]; 28 days of treatment, vs vehicle induced controls",significantly reduced
same,Serum TNF-α,[3],significantly lower than vehicle induced controls
same,Mean day 0 blood glucose Concentration (mmol/L) (SD),[3],24.9 (7.4) mmol/L
same,Mean day 28 blood glucose Concentration (mmol/L) (SD),[3],30.8 (6.2) mmol/L
same,Blood BUN,[3],25.3 ± 3.1
same,"Disease Score (kidney, H&E)",[3],8 ± 3
same,Eye area (retinal flatmount area covered by vasculature),[3],11.8 ± 1
same,Trichrome staining (Kidney fibrosis),[3],2.6 ± 0.98
same,Blood CRP,[3],5191 ± 993
same,Blood IL-6,[3],112.35 ± 20.01
same,Blood TGF-beta,[3],14.76 ± 2.95
same,Blood TNF-alpha,[3],327 ± 40.7
same,Urine albumine creatinine ratio (ALB:CRE),[3],29.86
